In the METLIN SMRT retention time set (Domingo-Almenara et al. 2019):

Assay: gradient 5% acetonitrile 3 min, to 50% in 2 min, to 85% in 15 min, held 3 min, 100 µL/min
Settings: column: Zorbax Extend-C18 2.1 x 50 mm; eluents: water / acetonitrile, 0.1% formic acid
How it was run: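 Each retention time is based on an adduct peak selected computationally and verified by manual inspection. Measurements used HPLC–quadrupole time-of-flight mass spectrometry in positive and negative ionization mode on mixtures of ~100 pure standards. Chromatography ran on a Zorbax Extend-C18 column (2.1 × 50 mm, 1.8 μm) at 100 μL/min with water and acetonitrile, each containing 0.1% formic acid, and dead and dwell volumes of 40 μL and 900 μL.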

SMILES	RP-LC retention time [s]
O=C(c1ccccc1)c1ccccc1C(=O)c1ccccc1	1090
CCOc1cccc(-c2noc(Cn3ccn(-c4ccccc4C)c(=O)c3=O)n2)c1	911
Cc1cc(N2CCCC2)n2nc(-c3ccc(C(C)(C)C)cc3)nc2n1	968
Cc1cc(OCC(=O)Nc2ccc(C#N)cc2)nc(N2CCN(c3ccccc3)CC2)n1	802
O=C(NCC1CCN(c2cc(-c3ccncc3)[nH]n2)CC1)c1ccc2cc[nH]c2c1	584
CCN1CCN(C(=O)Nc2ccc(C(=O)OC)cc2)c2cccnc21	621
CC(=O)N1CCC2(CC1)OC(=O)C(C)=C2C(=O)N1CCc2ccccc2C1	692
Cc1nn(CC(=O)NC(C)(C)C)c(C)c1S(=O)(=O)N1CCC(C(=O)N2CCC(C)CC2)CC1	794
COc1ccc(C)cc1NC(=O)Nc1c(-c2ccc(F)cc2)nc2ccccn12	714
CC(C)n1c(=O)oc2cc(-c3noc(-c4cc(F)ccc4Cl)n3)ccc21	1230
S=C1NCCN1c1ccccc1Cl	702
COc1ccc(-c2nc3cnccn3c2Nc2cc(OC)ccc2OC)cc1	831
O=C(NC1CCCCCCC1)c1nnc(-c2ccc(S(=O)(=O)N3CCCC3)cc2)o1	1070
O=C(Nc1cccc(Cl)c1F)N1CCc2nc[nH]c2C1	589
Nc1nc(SCC(=O)Nc2ccc(F)c(Cl)c2)n[nH]1	621
CC1CN=C2C=C(N3CCN(C(=O)Nc4ccccc4C(F)(F)F)CC3)N=CN21 (centres undefined)	615
Cc1ccccc1-c1nc(N)n(C(=O)C(C)(C)C)n1	1100
COCCN(CCNC(=O)C1Cn2cccc2C(=O)N1C)Cc1ccco1 (centres undefined)	569
CCOC(=O)Cc1ccc(NC(=O)Nc2cccn3c(C)nnc23)cc1	723
CCCN1C(=O)COc2cc(-c3noc(C(=O)NC4CCCCCC4)n3)ccc21	1150
Cc1ccc(C(=O)N2CCN(c3ccc(-c4nc(C)c(C)s4)cn3)CC2)s1	891
c1cncc(-c2nc(-c3ccc(-n4ccnc4)nc3)no2)c1	597
Cc1cnc(C2CCOCC2)n1C1CCCN(S(=O)(=O)Cc2ccccc2)C1 (centres undefined)	646

SMILES	RP-LC retention time [s]
O=C(NCCN1CCOCC1)C1CCN(c2nccnc2Sc2ccccc2)CC1	627
COCCNC(=O)Cc1ccc(NC(=O)c2ccc(Br)o2)cc1	637
Cc1cccc(Cn2c(=O)n(CCNC(=O)C3CCCO3)c3ncccc32)c1 (centres undefined)	715
CCc1cccc(NC(=O)C2CCCN(c3ncnc4c3nc3n4CCCCC3)C2)c1 (centres undefined)	758
CCn1cnc(S(=O)(=O)N2CCCC(C(=O)Nc3cccc(Cl)c3)C2)c1 (centres undefined)	797
CCc1ccc(NC(=O)C2CCN(C(=O)C3Sc4ccccc4NC3=O)CC2)cc1 (centres undefined)	760
Cc1noc(-c2cccc(OC3CN(C(=O)c4cnn(C)c4)C3)c2)n1	700
CCCc1noc(-c2ccnc(-n3ncc(C(=O)Nc4ccc(C)c(F)c4)c3C)c2)n1	1170
CCOc1ccc(C(=O)N2C[C@H](c3nc(-c4ccncc4)no3)[C@@H](C)C2)cc1	838
COc1cccc(-n2c(=O)c(C(=O)Nc3cc(F)ccc3F)c(O)c3cccnc32)c1	1270
CC(=O)N1CCCN(C2=NS(=O)(=O)C(c3ccc(Cl)cc3)=C2C)CC1	718
O=C(C1CCCCC1)N1CCCC1c1nc2ccccc2s1 (centres undefined)	966
COc1ccc(-c2ncc3c(n2)CCN(S(=O)(=O)c2cccc(Cl)c2)C3)cc1	1100
COc1ccc(Cn2nccc2NC(=O)COc2ccc(Cl)cc2)cc1	882
O=C(Nc1ccc(OCC(=O)N2CCN(c3ccc(Cl)cc3)CC2)nc1)C1CC1	808
Cn1cc(C2=CCN(S(=O)(=O)c3ccc(C(C)(C)C)cc3)CC2)c2cccnc21	1230
CCCN1C(=O)C(NC(=O)c2ccccc2OC)(C(F)(F)F)C(C(=O)OC)=C1C (centres undefined)	935
CCn1nccc1C(=O)N1CCCN(c2nnc3ccccn23)CC1	879
CCc1noc(C2(NC(=O)c3ccc(F)c(Cl)c3)CCCCC2)n1	1030
O=C(CCc1nc2ccccc2s1)N1[C@H]2CC[C@@H]1c1cnc(-c3ccccc3)nc1C2	902
COCCCNC(=O)N1CCCCCC1c1ccc(C)cc1 (centres undefined)	939
O=C(NC1CCc2ccccc21)c1nnn(-c2ccc(F)cc2)c1-c1ccncc1 (centres undefined)	799
Nc1nc(OCc2ccccc2)c2[nH]cnc2n1	654

SMILES	RP-LC retention time [s]
COCCN(Cc1ccc(Cl)cc1)Cc1cc(=O)n2ccccc2n1	635
CCOc1ccc(-c2noc(CN3N=NC4C(=O)N(c5cccc(OC)c5)C(=O)C43)n2)cc1OC (centres undefined)	917
O=C(CSc1nc2ccccc2[nH]1)Nc1nc2ccccc2s1	577
CNC(=O)CN(C)C(=O)C1CCCCc2nnc(C(C)C)n21 (centres undefined)	542
CCOC(=O)N1CCN(c2cc(C(=O)O)c3cc(NC(=O)c4ccc(OC)cc4)ccc3n2)CC1	630
CC(=O)NCCc1csc(C2CCCN(C(=O)C3(c4ccccc4)CC3)C2)n1 (centres undefined)	705
C=CCn1c(=O)c2ccccc2n(Cc2nc(-c3cccc(Br)c3)no2)c1=O	1140
CCOC(=O)N1CCN(c2cc(C(=O)O)c3cc(NC(=O)c4ccccc4OC)ccc3n2)CC1	629
Cc1ccc(-c2csc(NC(=O)c3ccc(Br)cc3)n2)c(C)c1	1270
CCOc1ccc(-n2c(=O)c3sccc3n(Cc3nc(-c4ccccc4OCC)no3)c2=O)cc1	1020
COc1ccccc1CNC(=O)C1CCN(c2ccc(SCc3ccccc3)nn2)CC1	778
COc1ccccc1-n1cc(-c2ccccc2)c2c(NCCN(C)C)ncnc21	695
Cc1cc(C)n(Cc2nc(-c3ccc(NC(=O)C4CCCCC4)cc3)oc2C)n1	1000
Cc1ccccc1-c1noc(C2CCCN2S(=O)(=O)c2ccc(Cl)cc2C)n1 (centres undefined)	1290
Cc1cc(C)n(-c2ccc(C(=O)N3CCN(c4ccccc4)CC3)cn2)n1	949
COc1cccc(-c2noc(C3CCCN3C(=O)C3CCC3)n2)c1 (centres undefined)	912
CC1Oc2ccc(-c3csc(NC(=O)c4ccccc4)n3)cc2N(C)C1=O (centres undefined)	970
Cc1ccc2c(NC(=O)C(c3ccccc3)c3ccccc3)noc2n1	785
COc1ccc(-n2nc(C(F)(F)F)cc2-c2ccc(Cl)cc2)cc1	1250
O=C(NCc1ccccc1)Nc1c(-c2ccccc2)nc2ccccn12	626
Cc1cccc(NC(=O)CSc2nnc(NC(=O)CN(C)S(C)(=O)=O)s2)c1C	618
COC[C@@H]1CN(S(=O)(=O)c2ccc(C(C)C)cc2)C[C@H]1c1ccccn1	895
O=C(NCC1CCCCC1)c1sc2ncccc2c1-n1cccc1	1190

SMILES	RP-LC retention time [s]
O=C(C1CCCN(S(=O)(=O)c2cc(-c3noc(C4CCCC4)n3)cs2)C1)N1CCOCC1 (centres undefined)	966
O=C1NCCc2c1[nH]c1ccccc21	750
CCCN1C(=O)C2CCC(=O)N2c2ccc(C(=O)NCCCN3CCCC3=O)cc21 (centres undefined)	631
O=C(NCc1nc(-c2ccc3c(c2)ncn3C2CCCC2)no1)c1ccco1	655
NC(=O)COC1CCC12CCN(C(=O)C1CCCC1)CC2 (centres undefined)	693
Cc1ccc(C(=O)Nc2nc(-c3ccc4c(c3)NC(=O)C(C)O4)cs2)cc1 (centres undefined)	918
CC1CN(C(=O)N2CCC(C(=O)N3CCN(c4ccccn4)CC3)CC2)c2cc(Cl)ccc2O1 (centres undefined)	672
O=C(c1n[nH]c2ccccc12)N1CCCC1c1nc(-c2cccc(C(F)(F)F)c2)no1 (centres undefined)	1330
Cc1ccc(S(=O)(=O)N2CC(c3nnc(-c4ccncc4)o3)C3(CCOCC3)C2)cc1 (centres undefined)	697
CC1CCN(S(=O)(=O)c2ccc3c(c2)CCCC(=O)N3CC(=O)N2CCc3ccccc3C2)CC1	1010
CC1(C(=O)NCc2ccc(F)cc2)CCCN(C(=O)Nc2ccc(Br)cc2F)C1 (centres undefined)	1030
CCOC(=O)C1CCN(c2cc(-n3nc(C)cc3C)ncn2)CC1	1000
O=C(Cn1c(=O)oc2ccc(C(=O)N3CCCC3)cc21)N1CCN(c2cccc(Cl)c2)CC1	842
Cc1cccc(OCC(=O)N(Cc2ccc(Br)o2)C2CCS(=O)(=O)C2)c1C (centres undefined)	960
COc1cccc(C(=O)N2C[C@@H]3C[C@H](NC(=O)c4cccs4)[C@H]2C3)c1OC	679
COCCn1c(CCCC(=O)Nc2ccc(Cl)cc2)nc2cccnc21	693
CS(=O)(=O)c1ccc2nc(Nc3nc4cc5c(cc4s3)OCO5)sc2c1	786
COc1ccc(C(=O)N2CCC(n3nc(-c4ccsc4)ccc3=O)CC2)cc1	797
O=C1NC2(CCN(C(=O)c3ccccc3Cl)CC2)N=C1c1cccc(F)c1	776
CCc1ccc(-c2noc(Cn3c(=O)n(Cc4cccc(OC)c4)c(=O)c4sccc43)n2)cc1	1170
